Tested on: wheat
Assay: Field grown wheat, harvest parameters
Type: in vivo, Triticum aestivum
Conditions: seeds not coated
Method: Effect of the psychrorphilic biofertilizer was tested on field conditions on wheat cultivation in Victoria City, Temuco, Chile. Wheat seeds were disinfected and coated with the psychrophilic bacterial biofertilizer of the present invention as described in Example 3. Control seeds were disinfected and treated with water. A field of one hectare was directly sowed with the seeds using a random block experimental design with four repetitions per treatments. Further, total yield after the harvest was measured and the yield per unit area of the crop field was calculated.

With O=P(=O)OP(=O)=O [Strain P2O5, P2O5] as the compound, how does the “Weight 1000 grains” value (50 Kg P2O5/ha) read?
The value was 33 ± 3 g.

And the Yield (50 Kg P2O5/ha)?
Its Yield is 4.8 ± 0.5 ton/ha.

And the “Weight 1000 grains” value (100 Kg P2O5/ha)?
The value was 37 ± 3 g.

What about the Yield (100 Kg P2O5/ha) of the same compound?
Its Yield is 5.1 ± 0.3 ton/ha.

And the “Weight 1000 grains” value (150 Kg P2O5/ha)?
The value was 35 ± 3 g.

And the Yield (150 Kg P2O5/ha)?
Its Yield is 5.0 ± 0.4 ton/ha.
